Holding throughout (format): ADME, organism-based
A short description of data set [1]: Distribution half life at alpha phase in HIV-seronegative human at 600 mg, po by two compartment model. The settings on record: in vivo.
The nature of data set [2]: Elimination half life at beta phase in HIV-seronegative human at 600 mg, po by two compartment model. The following applies: in vivo.
Data set [3] can be described thus: Central volume of distribution in HIV-seronegative human at 600 mg, po by two compartment model. The following applies: in vivo, read-out: Vc/F.
Data set [4] in a line: Total clearance in HIV-seronegative human at 600 mg, po by two compartment model. The settings on record: in vivo.

In general, half-life refers to how long it takes for the measured level to halve. A word on the CL/F: it is clearance divided by bioavailability, as obtained after extravascular dosing. Consider `CC(C)CN(C[C@@H](O)[C@H](Cc1ccccc1)NC(=O)O[C@H]1CCOC1)S(=O)(=O)c1ccc(N)cc1` [AMPRENAVIR], for which the half-life in data set [1] was 0.547 h; in data set [2] it was 15.8 h. Besides, the Vd/F in data set [3] was found to be 1.21 L/kg. The CL/F in data set [4] was 19.4 mL/min/kg.

(Values after ChEMBL document CHEMBL1143830, “Compartmental pharmacokinetic analysis of oral amprenavir with secondary peaks” (Antimicrob Agents Chemother, 2007).)
